Experimental data as given in ChEMBL document CHEMBL4004853, “Design, synthesis and biological evaluation of thienopyrimidine hydroxamic acid based derivatives as structurally novel histone deacetylase (HDAC) inhibitors” (Eur J Med Chem, 2017).

Key:
[1] = target: T1, Protein deacetylase HDAC6 (Homo sapiens, UniProt Q9UBN7); assay: Inhibition of full length recombinant human GST fused His6-tagged HDAC6 expressed in baculovirus infected High5 cells using Boc-Lys(epsilon-acetyl)-AMC as substrate measured after 3 hrs
T1 sequence (Q9UBN7 whole entry): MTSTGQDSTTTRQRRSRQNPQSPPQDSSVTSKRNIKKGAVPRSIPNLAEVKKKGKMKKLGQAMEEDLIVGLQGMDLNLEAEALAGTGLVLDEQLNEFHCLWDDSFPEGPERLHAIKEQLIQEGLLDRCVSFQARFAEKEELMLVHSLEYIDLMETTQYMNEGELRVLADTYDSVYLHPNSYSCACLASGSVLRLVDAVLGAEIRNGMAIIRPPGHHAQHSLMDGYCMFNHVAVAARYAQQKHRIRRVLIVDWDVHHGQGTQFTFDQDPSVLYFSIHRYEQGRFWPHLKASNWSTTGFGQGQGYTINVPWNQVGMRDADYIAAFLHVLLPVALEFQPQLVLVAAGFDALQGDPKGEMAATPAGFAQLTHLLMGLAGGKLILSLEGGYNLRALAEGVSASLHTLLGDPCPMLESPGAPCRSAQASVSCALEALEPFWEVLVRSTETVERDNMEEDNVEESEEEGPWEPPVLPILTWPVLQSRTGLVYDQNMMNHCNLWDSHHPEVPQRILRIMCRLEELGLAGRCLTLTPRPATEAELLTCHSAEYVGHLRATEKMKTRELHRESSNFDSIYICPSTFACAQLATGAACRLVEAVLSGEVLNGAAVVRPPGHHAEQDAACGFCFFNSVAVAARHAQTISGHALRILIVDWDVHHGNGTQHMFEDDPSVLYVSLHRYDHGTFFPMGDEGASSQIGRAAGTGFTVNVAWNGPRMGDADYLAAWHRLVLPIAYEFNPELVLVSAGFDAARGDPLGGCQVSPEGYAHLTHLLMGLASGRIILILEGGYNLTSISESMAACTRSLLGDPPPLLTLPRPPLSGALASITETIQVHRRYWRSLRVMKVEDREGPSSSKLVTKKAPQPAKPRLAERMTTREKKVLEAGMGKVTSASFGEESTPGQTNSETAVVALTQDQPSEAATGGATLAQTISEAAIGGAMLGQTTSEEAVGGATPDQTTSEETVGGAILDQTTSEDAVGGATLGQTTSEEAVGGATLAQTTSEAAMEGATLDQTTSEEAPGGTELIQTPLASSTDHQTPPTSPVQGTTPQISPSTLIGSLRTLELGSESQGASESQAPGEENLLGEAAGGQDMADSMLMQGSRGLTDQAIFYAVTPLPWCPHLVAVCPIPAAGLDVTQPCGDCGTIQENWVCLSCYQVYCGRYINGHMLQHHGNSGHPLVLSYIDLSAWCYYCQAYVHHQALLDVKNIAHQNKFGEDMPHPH

[2] = system: RPMI-8226; assay: Antiproliferative activity against human RPMI8226 cells after 72 hrs by CellTiter 96 AQueous Non-Radioactive assay; format: functional, cell-based; conditions: RPMI-8226, 72 h
[3] = target: Histone deacetylase 3 (Homo sapiens, UniProt O15379); assay: Inhibition of full length recombinant human GST fused His6-tagged HDAC3 expressed in baculovirus infected High5 cells using Ac-Lys-Tyr-Lys(epsilon-acetyl)-AMC as substrate measured after 24 hrs
[4] = target: T2, Histone deacetylase 1 (Homo sapiens, UniProt Q13547); assay: Inhibition of full length recombinant human GST fused His6-tagged HDAC1 expressed in baculovirus infected High5 cells using Ac-Lys-Tyr-Lys(epsilon-acetyl)-AMC as substrate measured after 24 hrs
[5] = system: HCT-116; assay: Antiproliferative activity against human HCT116 cells after 72 hrs by CellTiter 96 AQueous Non-Radioactive assay; format: functional, cell-based; conditions: HCT-116, 72 h
[6] = target: T2, Histone deacetylase 1; assay: Inhibition of HDAC1 in human RPMI8226 cells assessed as increase in histone H3 acetylation after 24 hrs by western blot analysis; format: cell-based
[7] = target: T3, Protein deacetylase HDAC6 (Homo sapiens) (UniProt Q9UBN7); assay: Inhibition of HDAC6 in human RPMI8226 cells assessed as increase in tubulin acetylation after 24 hrs by western blot analysis; format: cell-based
T3 sequence (whole entry): T1 sequence (Q9UBN7 whole entry)

Chain of Histone deacetylase 3 (O15379 whole entry, the tested form may be a part): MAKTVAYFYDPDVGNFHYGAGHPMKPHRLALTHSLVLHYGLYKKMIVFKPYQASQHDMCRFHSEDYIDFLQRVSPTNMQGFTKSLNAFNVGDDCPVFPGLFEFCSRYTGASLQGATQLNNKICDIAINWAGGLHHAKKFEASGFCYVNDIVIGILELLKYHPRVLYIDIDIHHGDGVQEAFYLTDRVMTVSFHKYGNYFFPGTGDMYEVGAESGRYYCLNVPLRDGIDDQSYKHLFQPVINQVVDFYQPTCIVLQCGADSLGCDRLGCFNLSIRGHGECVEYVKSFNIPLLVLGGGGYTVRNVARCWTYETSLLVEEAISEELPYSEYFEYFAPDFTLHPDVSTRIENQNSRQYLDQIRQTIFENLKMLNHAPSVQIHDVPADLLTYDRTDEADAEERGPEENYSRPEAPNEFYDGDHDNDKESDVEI
T2 sequence (Q13547 whole entry, the tested form may be a part): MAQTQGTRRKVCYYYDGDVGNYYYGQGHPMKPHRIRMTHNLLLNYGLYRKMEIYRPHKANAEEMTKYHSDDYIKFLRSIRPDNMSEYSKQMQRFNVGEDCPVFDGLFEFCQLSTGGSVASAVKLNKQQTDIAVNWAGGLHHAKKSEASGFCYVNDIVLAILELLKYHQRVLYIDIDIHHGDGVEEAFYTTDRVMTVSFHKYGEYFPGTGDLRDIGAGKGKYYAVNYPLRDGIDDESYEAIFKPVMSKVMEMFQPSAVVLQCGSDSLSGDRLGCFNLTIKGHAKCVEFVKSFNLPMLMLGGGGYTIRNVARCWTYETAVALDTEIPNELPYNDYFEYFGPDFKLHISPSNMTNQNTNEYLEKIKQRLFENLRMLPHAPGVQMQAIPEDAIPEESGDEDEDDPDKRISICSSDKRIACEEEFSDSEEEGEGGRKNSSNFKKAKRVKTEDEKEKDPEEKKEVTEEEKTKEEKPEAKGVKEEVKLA

## O=C(CCCCCCC(=O)Nc1cc2ncnc(Nc3cccc(Br)c3)c2s1)NO
[1]
  IC50: 16.9 nM
[2]
  IC50: 1750 nM
[3]
  IC50: 33.8 nM
[4]
  IC50: 54.5 nM
[5]
  IC50: 1740 nM

## CCc1cccc(Nc2ncnc3cc(NC(=O)CCCCCCC(=O)NO)sc23)c1
[1]
  IC50: 58.5 nM
[2]
  IC50: 1570 nM
[3]
  IC50: 147 nM
[4]
  IC50: 116 nM
[5]
  IC50: 1440 nM

## COc1ccc(Nc2ncnc3cc(NC(=O)CCCCCCC(=O)NO)sc23)c(C)c1
[1]
  IC50: 111 nM
[2]
  IC50: 1980 nM
[3]
  IC50: 144 nM
[4]
  IC50: 117 nM
[5]
  IC50: 2480 nM

## O=C(CCCCCCC(=O)Nc1cc2ncnc(Nc3cccc(Cl)c3)c2s1)NO
[1]
  IC50: 33.8 nM
[2]
  IC50: 1520 nM
[3]
  IC50: 45.5 nM
[4]
  IC50: 53.8 nM
[5]
  IC50: 1820 nM

## Cc1ccccc1Nc1ncnc2cc(NC(=O)CCCCCC(=O)NO)sc12
[1]
  IC50: 87.6 nM
[2]
  IC50: 1750 nM
[3]
  IC50: 98.8 nM
[4]
  IC50: 138 nM
[5]
  IC50: 2560 nM

## COc1cccc(Nc2ncnc3cc(NC(=O)CCCCCCC(=O)NO)sc23)c1
[1]
  IC50: 20.9 nM
[2]
  IC50: 1260 nM
[3]
  IC50: 21.4 nM
[6]
  inhibition: Dose-dependent effect
[4]
  IC50: 62.2 nM
[7]
  inhibition: Dose-dependent effect
[5]
  IC50: 1330 nM

## O=C(CCCCCCC(=O)Nc1cc2ncnc(Nc3cccc(F)c3)c2s1)NO
[1]
  IC50: 42.5 nM
[2]
  IC50: 1630 nM
[3]
  IC50: 64.5 nM
[4]
  IC50: 73.7 nM
[5]
  IC50: 1780 nM

## N#Cc1cccc(Nc2ncnc3cc(NC(=O)CCCCCCC(=O)NO)sc23)c1
[1]
  IC50: 20.1 nM
[2]
  IC50: 1580 nM
[3]
  IC50: 19.8 nM
[6]
  inhibition: Dose-dependent effect
[4]
  IC50: 45 nM
[7]
  inhibition: Dose-dependent effect
[5]
  IC50: 2090 nM
